These results are taken from BindingDB's records for doi:10.7270/Q2251GJ9 (The Scripps Research Institute Molecular Screening Center, 2007).

Where a name gives a salt, the structure may show the parent alone. Where only a bound is given, the exact number is not on record here.

Sequence of Sphingosine 1-phosphate receptor 1 (P21453 whole entry): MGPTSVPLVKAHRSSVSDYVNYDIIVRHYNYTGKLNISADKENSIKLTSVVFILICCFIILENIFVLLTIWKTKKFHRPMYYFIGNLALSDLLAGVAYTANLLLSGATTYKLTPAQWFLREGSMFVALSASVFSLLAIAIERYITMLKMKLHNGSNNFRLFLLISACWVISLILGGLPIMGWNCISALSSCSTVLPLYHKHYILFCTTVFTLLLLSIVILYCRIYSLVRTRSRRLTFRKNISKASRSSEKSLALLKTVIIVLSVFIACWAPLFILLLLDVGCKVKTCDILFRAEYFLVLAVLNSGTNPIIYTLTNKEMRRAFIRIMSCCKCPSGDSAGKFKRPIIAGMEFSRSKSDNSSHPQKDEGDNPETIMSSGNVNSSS

One assay has as its target Sphingosine 1-phosphate receptor 1 (Homo sapiens, UniProt P21453). Nature of the assay: direct activation of human S1P1 – cell-based, agonist mode, 60K MLSMR set, dose response (AID 468).
Settings: not given
As for `Cc1cccc(-c2nc(CSCC(=O)N3CCN(Cc4ccc5c(c4)OCO5)CC3)c(C)o2)c1` [1-(1,3-benzodioxol-5-ylmethyl)-4-[({[5-methyl-2-(3-methylphenyl)-1,3-oxazol-4-yl]methyl}thio)acetyl]piperazine], the midpoint of the response, the EC50, lay at 5.16 µM.

For the molecule `Cc1nn(-c2nc3ccccc3s2)c(N)c1-c1ccccc1` [1-(1,3-benzothiazol-2-yl)-3-methyl-4-phenyl-1H-pyrazol-5-amine], the EC50 is 0.415 µM. `C=CCn1c(C)cc(C(=O)CSc2nc3ccccc3o2)c1C` [1-(1-allyl-2,5-dimethyl-pyrrol-3-yl)-2-(1,3-benzoxazol-2-ylthio)ethanone]: the EC50 was found to be 9.52 µM. On the same count and under the same terms, the result for `O=C(CCN1CCc2ccccc2CC1)c1ccc2c(c1)OCCO2` [1-(2,3-dihydro-1,4-benzodioxin-6-yl)-3-(1,2,4,5-tetrahydro-3-benzazepin-3-yl)-1-propanone;hydrochloride] reads 10.5 µM; that for `COc1ccc(-n2c(O)cc(Sc3nnc[nH]3)c2O)c(OC)c1` [1-(2,4-dimethoxyphenyl)-3-(1H-1,2,4-triazol-5-ylthio)pyrrolidine-2,5-dione], 16.7 µM. Molecule `CCOc1ccc(S(=O)(=O)N2CCN(c3ccc(C)cc3C)CC2)cc1` [1-(2,4-dimethylphenyl)-4-(4-ethoxyphenyl)sulfonyl-piperazine] came in with an EC50 of more than 10 µM.

For `O=S(=O)(c1cccs1)N1CCN(CC(O)COc2cc(Cl)ccc2Cl)CC1` (stereo not drawn) [1-(2,5-dichlorophenoxy)-3-(4-thiophen-2-ylsulfonyl-1-piperazinyl)-2-propanol], the EC50 came out at 4.2 µM. The same measure, in the same setting: then `Cc1cc(C(=O)CSc2nnc(-c3cccs3)o2)c(C)n1-c1ccccc1` [1-(2,5-dimethyl-1-phenyl-3-pyrrolyl)-2-[(5-thiophen-2-yl-1,3,4-oxadiazol-2-yl)thio]ethanone], with 4.66 µM; and `Cc1cc(C(=O)CSc2nnnn2-c2ccc(O)cc2)c(C)n1Cc1ccc2c(c1)OCO2` [1-(2,5-dimethyl-1-piperonyl-pyrrol-3-yl)-2-[[1-(4-hydroxyphenyl)tetrazol-5-yl]thio]ethanone], with 5.91 µM; and `COc1ccccc1N=C(N)Nc1nc(CSc2ccc(C)cc2)cc(=O)[nH]1` [1-(2-methoxyphenyl)-2-[6-[[(4-methylphenyl)thio]methyl]-4-oxo-1H-pyrimidin-2-yl]guanidine], with 7.29 µM. On the same count and under the same terms, then `Cc1occc1C(=O)N1CCN(c2ccc(Cl)c(Cl)c2)CC1` [1-(3,4-dichlorophenyl)-4-(2-methyl-3-furoyl)piperazine], with 4.47 µM; and `COc1ccc(S(=O)(=O)N2CCN(c3ccc(C)cc3C)CC2)cc1OC` [1-(3,4-dimethoxyphenyl)sulfonyl-4-(2,4-dimethylphenyl)piperazine], with 6.58 µM. The same measure, in the same setting: the result for `COc1cc(-c2noc(C3CCCN(S(=O)(=O)c4cccc(Cl)c4)C3)n2)cc(OC)c1OC` (stereo not drawn) [1-(3-Chloro-benzenesulfonyl)-3-[3-(3,4,5-trimethoxy-phenyl)-[1,2,4]oxadiazol-5-yl]-piperidine] reads 3.83 µM; that for `COc1ccc(C(=O)C(CN2CCOCC2)c2ccccc2)cc1F` (stereo not drawn) [1-(3-Fluoro-4-methoxy-phenyl)-3-morpholin-4-yl-2-phenyl-propan-1-one], 22.5 µM.

On to `COc1cccc(NC(=O)Nc2nnc(N3CCCCC3C)s2)c1` (stereo not drawn) [1-(3-methoxyphenyl)-3-[5-(2-methyl-1-piperidinyl)-1,3,4-thiadiazol-2-yl]urea], for which a half-maximal response (EC50) required 8.72 µM. The molecule `CCCS(=O)(=O)c1nnnn1-c1cccc(OC)c1` [1-(3-methoxyphenyl)-5-(propylsulfonyl)-1H-tetrazole] gave an EC50 of 2.82 µM. Still for that read-out and setting: then `CCOc1ccc(S(=O)(=O)n2cnc3cc(C)c(C)cc32)cc1` [1-(4-Ethoxy-benzenesulfonyl)-5,6-dimethyl-1H-benzoimidazole], with 6.73 µM; and `N#Cc1ccc(NC(=O)Nc2ccc(Cl)cc2)cc1` [1-(4-chlorophenyl)-3-(4-cyanophenyl)urea], with 9.38 µM; and `Cc1cccc(NC(=O)Nc2ccc(C#N)cc2)n1` [1-(4-cyanophenyl)-3-(6-methyl-2-pyridinyl)urea], with more than 30 µM. The molecule `O=C(c1ccc(F)cc1)C(CN1CCOCC1)c1ccccc1` (stereo not drawn) [1-(4-fluorophenyl)-3-(4-morpholinyl)-2-phenyl-1-propanone;hydrochloride] showed an EC50 of 17.9 µM. Molecule `COc1cc(CSc2nnnn2-c2ccc(C)cc2)cc(OC)c1OC` [1-(4-methylphenyl)-5-[(3,4,5-trimethoxybenzyl)thio]-1H-tetrazole] showed an EC50 of 2.26 µM. Still for that read-out and setting: then `CCOC(=O)C1CCN(c2ncnc3c2oc2ccc(Cl)cc23)CC1` [1-(8-chloro-4-benzofuro[3,2-d]pyrimidinyl)-4-piperidinecarboxylic acid ethyl ester], with more than 95 µM; and `OC1(c2cccc(C(F)(F)F)c2)CCN(c2ncnc3c2[nH]c2ccc(F)cc23)CC1` [1-(8-fluoranyl-5H-pyrimido[5,4-b]indol-4-yl)-4-[3-(trifluoromethyl)phenyl]piperidin-4-ol], with 3.91 µM.

`O=C(Nc1cccc(C(F)(F)F)c1)C1CCCN1S(=O)(=O)c1cccc2cccnc12` (stereo not drawn) [1-(8-quinolinylsulfonyl)-N-[3-(trifluoromethyl)phenyl]-2-pyrrolidinecarboxamide] came in with an EC50 of 4.74 µM.

The same assay, now with this note: inactive by the depositor's call.
The molecule `CC(C)C(c1nnnn1Cc1ccccc1)N(Cc1ccco1)Cc1cccs1` (stereo not drawn) [1-(1-benzyltetrazol-5-yl)-N-(furan-2-ylmethyl)-2-methyl-N-(thiophen-2-ylmethyl)propan-1-amine] showed an EC50 of 51.2 µM.

With `Cc1ccc(-n2ncc3c(N4CCCC(C)C4)ncnc32)c(C)c1` (stereo not drawn) [1-(2,4-dimethylphenyl)-4-(3-methylpiperidin-1-yl)-1H-pyrazolo[3,4-d]pyrimidine], the EC50 came out at 11 µM. Still for that read-out and setting: then `Cc1ccc(C)c(-n2nnnc2Sc2nnnn2-c2ccccc2)c1` [1-(2,5-dimethylphenyl)-5-(1-phenyltetrazol-5-yl)sulfanyltetrazole], with 12.8 µM. For `CC1CCCC(C)N1C(=O)CN1CCN(c2nc(-c3ccc(F)cc3)cs2)CC1` (stereo not drawn) [1-(2,6-Dimethyl-piperidin-1-yl)-2-{4-[4-(4-fluoro-phenyl)-thiazol-2-yl]-piperazin-1-yl}-ethanone], the EC50 came out at 12.7 µM. As for `CCN(CC)C(=O)C1CCN(S(=O)(=O)c2ccc3oc4ccccc4c3c2)CC1` [1-(2-dibenzofuranylsulfonyl)-N,N-diethyl-4-piperidinecarboxamide], the response was half-maximal at 31.7 µM (EC50). `CC(C)Cn1c(=O)c(C(=O)Nc2ccccc2S(N)(=O)=O)c(O)c2ccccc21` [1-(2-methylpropyl)-2-oxidanyl-4-oxidanylidene-N-(2-sulfamoylphenyl)quinoline-3-carboxamide] came in with an EC50 of 13.4 µM. On the same count and under the same terms, then `O=C1CC(N2CCN(C/C=C/c3ccccc3)CC2)C(=O)N1CCc1ccccc1` (stereo not drawn) [1-(2-phenylethyl)-3-[4-[(E)-3-phenylprop-2-enyl]-1-piperazinyl]pyrrolidine-2,5-dione], with 20 µM. `CCOC(=O)C1CCN(c2ncnc3c2oc2ccccc23)CC1` [1-(4-benzofuro[3,2-d]pyrimidinyl)-4-piperidinecarboxylic acid ethyl ester] returned an EC50 of 12 µM.

Molecule `CCCCOc1ccc(S(=O)(=O)n2c(C)nc3ccccc32)cc1` [1-(4-butoxyphenyl)sulfonyl-2-methyl-benzimidazole] had an EC50 of 23.2 µM.
